Assay results taken from US20110136897A1, “TOLL-LIKE RECEPTOR 9 AGONISTS FOR THE TREATMENT OF ANXIETY-RELATED DISORDERS AND INFLAMMATORY DISORDERS” (YISSUM RESEARCH DEVELOPMENT COMPANY OF THE HEBREW …, priority 2008, published 2011).
Entries after “also recorded” stand apart in the source; their conditions may differ. In the oligonucleotide strings, read from the 5' end, every base follows the letter of its sugar. An asterisk marks phosphorothioate; unmarked linkages are phosphodiester. Other units and linkages are bracketed, terminal groups are in braces. A string of capitals states the bases alone. d = 2'-deoxy (DNA)

Legend:
hippocampus = experiment: RT-PCR of anxiety-related hippocampal transcripts, 4 days following stress; assay type: in vivo, mouse
Experimental: (§1) Animals were randomly divided into 5 groups. The following daily treatments initiated immediately before stressor exposure and for a total of four consecutive days: saline, 50 μg/kg ODN1826, 50 μg/kg mEN101, 50 μg/kg μg mEN101 and 500 μg/kg μg ODN2088. Oligonucleotides were delivered in 300 μl 0.9% NaCl solution (Teva, Israel). A control group was exposed to fresh, unused litter. Animals were sacrificed and brains dissected on day 1 2 h after the stressor, on day 4 2 h after the last injection, or on day 7 2 h after the behavioral tests, as noted.
Real-time PCR (RT-PCR): Brains were dissected and tissues stored frozen at −70° C. until use. Hippocampal RNA was extracted using the RNeasy Tissue Mini Kit (Qiagen, Germany). Total RNA was reverse-transcribed (200 ng) using Impromp-II reverse transcriptase (Promega, Madison, Wis.) as instructed. RT-PCR was performed using Power SYBR®Green PCR Master Mix (Applied Biosystems, UK) in a 7900 HT Sequence Detection System (Applied Biosystems, Foster City, Calif.). Quantification was assessed at the logarithmic phase of the PCR reaction. The PCR annealing temperature was 60° C. for all primer pairs. GAPDH was used as a house-keeping gene.
The transcription factor early growth response gene 1 (egr-1) is a central mediator of inflammation and is broadly and constitutively expressed in the central nervous system (CNS). […]

RAW264.7 cells [1] = experiment: Nitric oxide (NO) production, Griess reaction; assay type: cell-based, mouse; details: with 1 μM mEN101
FVB/N mice = experiment: Predator (cat) odor stress paradigm, elevated plus maze (EPM) and acoustic startle response (ASR) one week post-exposure; assay type: in vivo, mouse
Experimental: Animals: FVB/N or adult TLR9 −/− mice and strain-matched wild type C57/B6J mice were housed four per cage, with constant temperature (21±1° C.), a 12 hour light/dark cycle, free access to food and water and habituation to the housing conditions by daily handling. Experiments were performed 1 week after arrival in the animal facility.
Behavioral paradigms: Mice were placed for 10 minutes on well-soiled cat litter (in use by the cat for 2 days, sifted for stools). One week after exposure, animals were tested according to Cohen et al. (2005) Biol Psychiatry 58, 640 in the elevated plus maze (EPM) and the acoustic startle response (ASR) paradigms. The EPM is a plus-shaped platform with two opposing open arms and two opposing closed arms (surrounded by 14-cm high opaque walls on three sides). Mice were placed on the central platform and were allowed to explore the maze for 5 min. […]
Startle response was measured using two ventilated startle chambers (SR-LAB System, San Diego Instruments, San Diego, Calif.). Each Plexiglas cylinder rests on a platform inside a sound-attenuated, ventilated chamber. Startle sessions started with a 5-minute acclimatization period to a background of 68 dB white noise, followed by 30 acoustic startle stimuli (110 dB white noise of 40 ms duration with 30 s or 45 s inter-trial interval). Startle amplitude was averaged over all 30 trials, and percent habituation was calculated as the percent difference between the response to the first block of stimuli and to the last one.
as §1
To challenge the hypothesis that TLR9 activation modulates psychological stress reactions, mice were exposed to the predator odor stress paradigm (Cohen, H., Zohar, J., Matar, M. A., Kaplan, Z. & Geva, A. B. (2005) Biol Psychiatry 58, 640-50) and treated them with TLR9 activating or blocking oligonucleotides and with a known stress-suppressing oligonucleotide, mEN101. One week post-exposure, treated mice were tested for avoidance behavior and hyper-arousal in the elevated plus maze (EPM) and acoustic startle response (ASR) tests, respectively (FIG. 1B). […] They also presented greater startle amplitude (F5,103=10.75, p<0.0001; p<0.0001) and decreased startle habituation ([…]; p<0.0001) than control mice (FIG. 1C). The traumatic experience conferred varied impacts in the exposed mice, ranging from drastically maladaptive behavior to generally unmodified response patterns.

RAW264.7 cells [2] = experiment: HSP90β mRNA RT-PCR in RAW264.7 cells; assay type: cell-based, mouse; details: with mEN101, 24 hours
Experimental: Cell cultures: The mouse macrophage cell line RAW 264.7 (ATCC, MD) was cultured in Dulbecco's modified Eagle's medium (DMEM) (Biological Industries, Israel) supplemented with 10% heat-inactivated fetal bovine serum (Biological Industries, Israel), 100 μg/ml streptomycin (Sigma), 100 U/ml penicillin (Sigma) and 2 mM 1-glutamine (Biological Industries, Israel) at 37° C. in a humidified atmosphere with 5% CO2.
(§2) Real-time PCR (RT-PCR): RAW264.7 cells and spleen were used for RT-PCR. 1×10^6 RAW264.7 cells were grown in 2 ml medium in 6 wells plates until 80% confluence was obtained. Total RNA was extracted using the RNeasy kit (Qiagen, CA, USA). Spleen and brain tissues' RNA was extracted using the RNeasy Tissue Mini Kit (Qiagen, Germany). In all cases, total RNA was reverse-transcribed (200 ng) using Impromp-II reverse transcriptase (Promega, WI, USA) according to manufacturer's instructions. RT-PCR was performed using Power SYBR®Green PCR Master Mix (Applied Biosystems, UK) in a 7900 HT Sequence Detection System (Applied Biosystems, CA). Quantification was assessed at the logarithmic phase of the PCR reaction. The PCR annealing temperature was 60° C. for all primer pairs.

HSP90β mRNA = HSP90β mRNA RT-PCR in spleen and frontal lobe of stressed mice; assay type: in vivo, mouse; details: co-administration with mEN101
Experimental: Animals: The stress paradigm consisted of placing the test animals on well-soiled cat litter for 10 minutes (in use by the cat for 2 days, sifted for stools). Tissues were removed 4 days following exposure.
as §2

RAW264.7 cells [3] = experiment: Nitric oxide (NO) production, Griess reaction; assay type: cell-based, mouse; details: added with 10 μM mEN101
Experimental: The mouse macrophage cell line RAW 264.7 (ATCC, Bethesda, Md.) was cultured in Dulbecco's modified Eagle's medium (DMEM) (Biological Industries) supplemented with 10% heat-inactivated fetal bovine serum (Biological Industries, Israel), 100 μg/ml streptomycin, 100 U/ml penicillin (Sigma) and 2 mM 1-glutamine (Biological Industries) at 37° C. in a humidified atmosphere with 5% CO2.
Determination of nitric oxide (NO) production: Nitrite concentration in the medium of cultured cells was measured as an indicator of NO production according to the Griess reaction. 1×10^5 mouse RAW264.7 cells were grown in 0.5 ml medium in 48-wells plate until 80% confluence was obtained. […] (1% sulfanilamide, 0.1% naphthylethylenediamine dihydrochloride, 5% H3PO4). Absorbance was read at 540 nm after 10 min using SPECTRAFluor Plus spectrophotometer (TECAN, UK).
To further characterize the TLR9 activating features of mEN101, mEN101 was applied to RAW264.7 cells (n=4 repeats) for 24 hours and the subsequent production of inflammatory markers was quantified. […] Addition of chloroquine (CQ), a weak base that perturbs endosomal pH and thus disturbs endosomal maturation, as well as the specific TLR9 inhibiting oligonucleotides ODN2088 and ODN TTAGGG (17), all blocked the 10 μM mEN101-driven increases in NO (p<0.015) (FIG. 2A). Thus, both gain and loss of function tests validated the nature of mEN101 as an endosomally active TLR9 activator, albeit a weak one.

[4] = 500 μg/kg co-administered with 50 μg/kg mEN101

Substance: 5′-TCCTGGCGGGGAAGT-3′ (dT*dC*dC*dT*dG*dG*dC*dG*dG*dG*dG*dA*dA*dG*dT) [ODN2088]
- effect on mEN101-induced modulation of hippocampal genes (hippocampus; co-administration with mEN101): abolished the mEN101-induced modulation of these genes
- anxiety-related transcripts GABRA2, CHRNA7, ADCYAP1R1, PKCB, CHRBP and CAMK2A (FIGS. 5A-F legend) (hippocampus; co-administration with mEN101, day 4): reduced to control levels
- effect on mEN101 effects on NO production (FIG. 2A legend) (RAW264.7 cells [1]): abolished
- EPM score of co-treated mice vs mEN101-treated mice (FVB/N mice; [4]): larger EPM scores
- effect on mEN101 anxiolytic effects (FVB/N mice; [4]): abolished much of the mEN101 anxiolytic effects; also recorded: abolished the mEN101-induced amelioration of anxiety-correlated behaviors
- habituation to acoustic startle of co-treated mice vs mEN101-treated mice (FVB/N mice; [4]): smaller habituation to acoustic startle
- startle response of co-treated mice (FVB/N mice; [4]): remained unchanged
- anxiety index (AI): effect on mEN101 ameliorative effect (FVB/N mice; co-administered with mEN101, compared to mEN101 treated mice): abolished mEN101 ameliorative effect
- effect on mEN101 up-regulation of HSP90β mRNA (RAW264.7 cells [2]): abolished
- effect on HSP90β mRNA up-regulation (HSP90β mRNA): completely abolished; also recorded: blocked
- effect on 10 μM mEN101-driven increases in NO (RAW264.7 cells [3]): blocked
